Assay results taken from patent US4056634A, “Dimercaptoethyl ether sulfonium compounds and use as antiinflammatory and antirheumatic agents” (Whitefin Holding S.A., priority 1975, dated 1977).

Experiments:
in vivo = settings: rat
Granuloma pouch = experiment: "Granuloma pouch" test (Selye), antiinflammatory activity in the rat; settings: 0.06 LD50, N = 10; for Exudate volume (ml), x- ± s.e.: controls 13.2 ± 2.19
[1] = test system: Freund's adjuvant arthritis; experiment: Freund's adjuvant arthritis test in rats (Perper's design); settings: 0.04 LD50, N = 10; for Δ Volume (ml) (not injected paw; opposite site), x- ± s.e.: arthritic controls 1.68 ± 0.14; for ΔVolume (ml) (injected paw), x- ± s.e.: arthritic controls 3.21 ± 0.27
[2] = 80 mg/Kg/os daily, n.s. = not significant

With `CC(=O)Oc1ccccc1C(=O)O` [Acetylsalicylic acid] the LD50 (in vivo; ip) was 500 mg/kg and the LD50 (in vivo; po) was 1500 mg/kg.
With `CCCCC1C(=O)N(c2ccccc2)N(c2ccccc2)C1=O` [Phenylbutazone] the “Pouch wall Fresh weight, % inhib.” value (Granuloma pouch; 80 mg/Kg/os daily) was 27%, the “Pouch wall Fresh weight (g), x- ± s.e.” value (Granuloma pouch; 80 mg/Kg/os daily, controls 5.10 ± 0.53) was 3.72 ± 0.28 g and the “Exudate volume (ml), x- ± s.e.” value (Granuloma pouch; 80 mg/Kg/os daily) was 9.70 ± 1.65 mL. For the same compound, the “Exudate volume, % inhib.” value (Granuloma pouch; [2]) was 28%, the “Pouch wall Fresh weight, % inhib.” value (Granuloma pouch; [2]) was 20% and the “Δ Volume (not injected paw; opposite site), % inhib.” value ([1]; 50 mg/Kg/os daily) was 0%. The “ΔVolume (injected paw), % inhib.” value ([1]; 50 mg/Kg/os daily) was 8%, the “Δ Volume (ml) (not injected paw; opposite site), x- ± s.e.” value ([1]; 50 mg/Kg/os daily) was 1.74 ± 0.13 mL and the “ΔVolume (ml) (injected paw), x- ± s.e.” value ([1]; 50 mg/Kg/os daily) was 2.97 ± 0.14 mL.
In the case of `C[S+](C)CCOCC[S+](C)C` [Z.964, 2,2'-bis(dimethylsulfoniumethyl)ether diiodide], the LD50 (in vivo; ip) is reported as 1150 mg/kg, the LD50 (in vivo; po) is reported as > 5000 mg/kg and the “Pouch wall Fresh weight, % inhib.” value (Granuloma pouch; 300 mg/Kg/os daily) is reported as 48%. For the same compound, the “Exudate volume, % inhib.” value (Granuloma pouch; 300 mg/Kg/os daily, * P<0.05) was 53%, the “Pouch wall Fresh weight, % inhib.” value (Granuloma pouch; 300 mg/Kg/os daily, * P<0.05) was 38% and the “Pouch wall Fresh weight (g), x- ± s.e.” value (Granuloma pouch; 300 mg/Kg/os daily, controls 5.10 ± 0.53) was 2.70 ± 0.27 g. For the same compound, the “Exudate volume (ml), x- ± s.e.” value (Granuloma pouch; 300 mg/Kg/os daily) was 6.15 ± 0.69 mL, the “Pouch wall Fresh weight (g), x- ± s.e.” value (Granuloma pouch; 300 mg/Kg/os daily, controls 1126.7, s.e. 156.7) was 708.9 ± 79.0 and the “Δ Volume (not injected paw; opposite site), % inhib.” value ([1]; 200 mg/Kg/os daily) was 63%. The “ΔVolume (injected paw), % inhib.” value ([1]; 200 mg/Kg/os daily) was 32%, the “Δ Volume (ml) (not injected paw; opposite site), x- ± s.e.” value ([1]; 200 mg/Kg/os daily) was 0.61 ± 0.13 mL and the “ΔVolume (ml) (injected paw), x- ± s.e.” value ([1]; 200 mg/Kg/os daily) was 2.17 ± 0.24 mL.
